Test results: US20240270762A1, “PENICILLIN-BINDING PROTEIN INHIBITORS” (priority 2021, published 2024)
In brackets after ≈: the same amount, converted by molar mass.

Legend:
[1] = biological target: T1, PBP3 from Pseudomonas aeruginosa (PAO1) (Pseudomonas aeruginosa, UniProt G3XD46); experiment: Bocillin-FL fluorescence polarization competition binding, P. aeruginosa PBP3; conditions: Binding affinity to P. aeruginosa PBP3; fluorescence polarization competition binding assay using Bocillin-FL; read-out: P. aeruginosa PBP3 Potency
T1 construct: made in house
T1 sequence (G3XD46 whole entry): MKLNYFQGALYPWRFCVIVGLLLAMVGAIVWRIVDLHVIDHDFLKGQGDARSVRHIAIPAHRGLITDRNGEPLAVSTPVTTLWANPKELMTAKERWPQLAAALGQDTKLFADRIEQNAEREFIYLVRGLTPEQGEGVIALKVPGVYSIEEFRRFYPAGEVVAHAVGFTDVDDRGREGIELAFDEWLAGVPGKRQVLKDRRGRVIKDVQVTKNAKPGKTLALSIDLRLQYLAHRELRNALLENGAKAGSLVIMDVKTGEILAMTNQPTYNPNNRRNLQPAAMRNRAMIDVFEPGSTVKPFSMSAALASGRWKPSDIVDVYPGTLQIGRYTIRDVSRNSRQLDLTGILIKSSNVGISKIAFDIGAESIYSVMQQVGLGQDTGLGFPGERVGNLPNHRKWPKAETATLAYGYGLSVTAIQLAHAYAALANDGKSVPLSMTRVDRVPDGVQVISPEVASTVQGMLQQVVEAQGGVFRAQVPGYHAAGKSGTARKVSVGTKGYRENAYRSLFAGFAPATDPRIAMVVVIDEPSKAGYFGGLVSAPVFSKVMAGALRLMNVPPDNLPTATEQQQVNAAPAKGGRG
Procedure, shortened: (§1)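 Purified PBPs pre-incubated with inhibitor (E. coli PBP3 1.5 μM, 30 min; P. aeruginosa PBP3 0.75 μM, A. baumannii PBP1a 1 μM and PBP3 0.2 μM, 15 min), then Bocillin-FL 0.1 μM (0.05 μM for PBP1a) added; FP read up to 60 min. EC50 = concentration halving bound Bocillin-FL.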

[2] = biological target: T2, PBP3 from Acinetobacter baumannii (ATCC 19606) (Acinetobacter baumannii, UniProt A0ABX6CK25); experiment: Bocillin-FL fluorescence polarization competition binding, A. baumannii PBP3; conditions: fluorescence polarization competition binding assay using Bocillin-FL; read-out: A. baumannii PBP3 Potency
T2 sequence (A0ABX6CK25 64-610): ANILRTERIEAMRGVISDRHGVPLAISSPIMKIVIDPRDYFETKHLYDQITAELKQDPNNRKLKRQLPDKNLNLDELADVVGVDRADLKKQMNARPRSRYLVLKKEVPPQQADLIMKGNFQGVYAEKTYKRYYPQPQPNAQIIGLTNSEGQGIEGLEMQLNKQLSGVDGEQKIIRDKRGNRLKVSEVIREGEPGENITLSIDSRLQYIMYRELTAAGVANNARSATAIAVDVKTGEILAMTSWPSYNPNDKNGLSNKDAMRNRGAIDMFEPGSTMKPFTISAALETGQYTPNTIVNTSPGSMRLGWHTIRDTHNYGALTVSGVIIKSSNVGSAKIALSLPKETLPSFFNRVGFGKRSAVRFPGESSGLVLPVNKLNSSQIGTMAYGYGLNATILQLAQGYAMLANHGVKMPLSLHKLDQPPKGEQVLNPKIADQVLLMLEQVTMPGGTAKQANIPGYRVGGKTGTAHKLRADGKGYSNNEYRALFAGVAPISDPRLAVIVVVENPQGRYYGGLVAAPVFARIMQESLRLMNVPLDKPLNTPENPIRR
Procedure, shortened: as §1

[3] = biological target: A. baumannii PBP2 (Acinetobacter baumannii, UniProt D0C8Z9); experiment: Bocillin-FL competition binding via gel filtration, A. baumannii PBP2
Sequence of A. baumannii PBP2 (D0C8Z9 whole entry): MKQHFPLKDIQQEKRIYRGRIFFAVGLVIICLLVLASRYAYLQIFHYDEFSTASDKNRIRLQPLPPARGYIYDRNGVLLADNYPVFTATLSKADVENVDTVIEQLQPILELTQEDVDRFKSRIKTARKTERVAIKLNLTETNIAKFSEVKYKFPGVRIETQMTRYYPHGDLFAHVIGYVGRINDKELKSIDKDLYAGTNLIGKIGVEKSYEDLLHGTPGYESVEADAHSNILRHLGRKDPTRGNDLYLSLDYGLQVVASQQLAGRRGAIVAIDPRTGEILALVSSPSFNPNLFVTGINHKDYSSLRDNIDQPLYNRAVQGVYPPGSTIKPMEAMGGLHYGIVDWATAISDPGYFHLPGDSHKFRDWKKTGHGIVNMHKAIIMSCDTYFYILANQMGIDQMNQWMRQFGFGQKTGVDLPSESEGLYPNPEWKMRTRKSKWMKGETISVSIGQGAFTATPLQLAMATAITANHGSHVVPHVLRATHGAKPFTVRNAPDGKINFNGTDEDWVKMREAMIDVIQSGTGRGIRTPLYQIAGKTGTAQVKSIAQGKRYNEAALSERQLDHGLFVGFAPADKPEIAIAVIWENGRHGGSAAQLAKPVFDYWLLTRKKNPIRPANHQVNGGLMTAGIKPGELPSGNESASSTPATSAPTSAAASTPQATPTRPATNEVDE
Procedure, shortened: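 Enzyme was pre-incubated with rising inhibitor concentrations, then Bocillin-FL was added and incubated 15 minutes more. Bound probe was separated by gel filtration and fluorescence read. EC50 came from fitting fraction of PBP labelled versus inhibitor concentration to a Hill equation with ymin, ymax and n.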

[4] = system: A. baumannii ATCC 17978; experiment: microbe, parasite or virus in culture; type: cell-based; conditions: Acinetobacter baumannii, ATCC17978, read-out: MIC, A. baumannii ATCC 17978
[5] = system: P. aeruginosa (ΔmexAB-oprM); experiment: Broth microdilution MIC in iron-depleted CAMHB (IDM); type: cell-based; conditions: Pseudomonas aeruginosa; iron-depleted CAMHB (IDM); […]; read-out: Minimum inhibitory concentration, P. aeruginosa ΔmexAB-oprM
[6] = system: A. baumannii 1258916; experiment: microbe, parasite or virus in culture; type: cell-based, Acinetobacter baumannii; conditions: Acinetobacter baumannii, 1258916, read-out: MIC, A. baumannii 1258916
[7] = system: A. baumannii CDC-0036; experiment: microbe, parasite or virus in culture; type: cell-based; conditions: Acinetobacter baumannii, CDC0036, read-out: MIC, A. baumannii CDC-0036
[8] = system: P. aeruginosa CDC-0110; experiment: microbe, parasite or virus in culture; type: cell-based; conditions: Pseudomonas aeruginosa, CDC0110, read-out: Minimum inhibitory concentration, P. aeruginosa CDC-0110

Row | SMILES | IC50 [1] [µM] | IC50 [2] [µM] | EC50 [3] [µM] | MIC [4] [µg/mL] | MIC [5] [µg/mL] | MIC [6] [µg/mL] | MIC [7] [µg/mL] | MIC [8] [µg/mL]
1 | O=C(NCCCN1CCN(C(=O)N[C@@H](C(=O)N[C@H]2Cc3ccc(F)c(C(=O)O)c3OB2O)c2cc(F)c(O)c(O)c2Cl)C(=O)C1=O)c1cc(F)c(O)c(F)c1 [Example 422, (R)-3-((R)-2-(2-chloro-5-fluoro-3,4-dihydroxyphenyl)-2-(4-(3-(3,5-difluoro-4-hydroxybenzamido)propyl)-2,3-dioxopiperazine-1-carboxamido)acetamido)-7-fluoro-2-hydroxy-3,4-dihydro-2H-benzo[e][1,2]oxaborinine-8-carboxylic acid] | < 10 | < 10 | < 10 | < 1 | < 1 | < 1 | 2 to 4 (≈ 2.51 to 5.03 µM) | < 1
2 | O=C(NCCCN1CCN(C(=O)NC(C(=O)N[C@H]2Cc3ccc(F)c(C(=O)O)c3OB2O)c2cc(F)c(O)c(O)c2Cl)C(=O)C1=O)c1cc(O)cc(O)c1 (stereo partly drawn) [Example 423, (3R)-3-(2-(2-chloro-5-fluoro-3,4-dihydroxyphenyl)-2-(4-(3-(3,5-dihydroxybenzamido)propyl)-2,3-dioxopiperazine-1-carboxamido)acetamido)-7-fluoro-2-hydroxy-3,4-dihydro-2H-benzo[e][1,2]oxaborinine-8-carboxylic acid] | < 10 | < 10 | < 10 | < 1 | < 1 | < 1 | 2 to 4 (≈ 2.58 to 5.16 µM) | < 1
3 | O=C(O)c1c(F)ccc2c1OB(O)[C@@H](NC(=O)C(NC(=O)N1CCN(C3CCN(C(=O)Nc4cccc(O)c4)CC3)C(=O)C1=O)c1cc(F)c(O)c(O)c1Cl)C2 (stereo partly drawn) [Example 424, (3R)-3-(2-(2-chloro-5-fluoro-3,4-dihydroxyphenyl)-2-(4-(1-((3-hydroxyphenyl)carbamoyl)piperidin-4-yl)-2,3-dioxopiperazine-1-carboxamido)acetamido)-7-fluoro-2-hydroxy-3,4-dihydro-2H-benzo[e][1,2]oxaborinine-8-carboxylic acid] | < 10 | < 10 | < 10 | < 1 | < 1 | < 1 | < 1 | < 1
4 | O=C(O)c1c(F)ccc2c1OB(O)[C@@H](NC(=O)C(NC(=O)N1CCN(C3CCN(C(=O)c4cncc(O)c4)CC3)C(=O)C1=O)c1cc(F)c(O)c(O)c1Cl)C2 (stereo partly drawn) [Example 425, (3R)-3-(2-(2-chloro-5-fluoro-3,4-dihydroxyphenyl)-2-(4-(1-(5-hydroxynicotinoyl)piperidin-4-yl)-2,3-dioxopiperazine-1-carboxamido)acetamido)-7-fluoro-2-hydroxy-3,4-dihydro-2H-benzo[e][1,2]oxaborinine-8-carboxylic acid] | < 10 | < 10 | 10 to 50 | < 1 | < 1 | < 1 | < 1 | < 1
5 | O=C(O)c1c(F)ccc2c1OB(O)[C@@H](NC(=O)C(NC(=O)N1CCN(C3CCN(C(=O)c4ccc(O)cc4)CC3)C(=O)C1=O)c1cc(F)c(O)c(O)c1Cl)C2 (stereo partly drawn) [Example 427, (3R)-3-(2-(2-chloro-5-fluoro-3,4-dihydroxyphenyl)-2-(4-(1-(4-hydroxybenzoyl)piperidin-4-yl)-2,3-dioxopiperazine-1-carboxamido)acetamido)-7-fluoro-2-hydroxy-3,4-dihydro-2H-benzo[e][1,2]oxaborinine-8-carboxylic acid] | < 10 | < 10 | < 10 | < 1 | < 1 | < 1 | < 1 | < 1
